Laboratory results taken from US12017997B2, “Host-targeted pan-respiratory antiviral small molecule therapeutics” (priority 2021, dated 2024).
Read-outs that look alike come from different tables or passages of the source.

What was measured:
[1] = tested on: recombinant Nipah virus expressing ZsGreen fluorescence protein (rNiV-ZsG); assay: microbe, parasite or virus in culture; conditions: Henipavirus nipahense, MRC5, 72 h, read-out: MRC-5 EC50
[2] = Toxicity testing: cell viability, Alamar Blue HS; conditions: human, MRC-5 cells (uninfected)
[3] = tested on: recombinant Nipah virus expressing ZsGreen fluorescence protein (rNiV-ZsG); conditions: human
MRC-5 cells = assay: Toxicity testing: cell viability, Alamar Blue HS; conditions: read-out: MRC-5 CC50; uninfected MRC-5 cells, 72 hours post-compound treatment

Structure (SMILES) | EC50 [1] [µM] | CC50 at 72 h [2] [µM] | EC50 [3] [µM] | CC50 (MRC-5 cells) [µM]
COc1c(CNC(=O)c2cc(C3CC3)nn2C)cccc1OCc1ccc(C(=O)N2CCC(N(C)S(C)(=O)=O)CC2)cc1 [Compound 96] | 16.1 | > 5 | – | –
COc1c(CNC(=O)c2cc(C3CC3)nn2C)cccc1OCc1ccc(COC(=O)N2CCN(S(=O)(=O)CC(C)C)CC2)cc1 [Compound 173] | 0.0239 | > 5 | – | –
COc1c(CNC(=O)c2cc(C3CC3)nn2C)cccc1OCc1cccc(CN2CCN(C(C)=O)CC2)c1 [Compound 88] | 0.144 | > 5 | – | –
COc1c(CNC(=O)c2cc(C3CC3)nn2C)cccc1N1CCN(S(C)(=O)=O)CC1 [Compound 118] | 3.85 | > 5 | – | –
COc1c(CNC(=O)c2cc(C3CC3)nn2C)cccc1N(C)Cc1ccc(C(=O)N2CCN(S(C)(=O)=O)CC2)cc1 [Compound 113] | 1.5 | > 5 | – | –
Cc1c(CNCc2cc(C3CC3)nn2C)cccc1OCc1ccc(C(=O)N2CCN(S(C)(=O)=O)CC2)cc1 [Compound 127] | 20 | > 5 | – | –
COc1c(CNC(=O)c2cc(C3CC3)nn2C)cccc1OCc1ccc(C(=O)N2CCN(S(C)(=O)=O)CC2)cc1 [Compound 9] | 0.508 | > 5 | – | –
CN1CCN(Cc2ccc(COc3ccc(CNC(=O)c4cc(C5CC5)nn4C)cc3Cl)cc2)CC1 [Compound 175] | 0.2 | > 5 | – | –
COc1c(CNC(=O)c2cc(C3CC3)nn2C)cccc1OCc1ccc(CN2CCCC2)cc1 [Compound 18] | 0.124 | > 5 | – | –
COc1c(CNC(=O)c2cc(C3CC3)nn2C)cccc1OCc1ccc(C(=O)NC2CCN(S(C)(=O)=O)CC2)cc1 [Compound 94] | 1.05 | > 5 | – | –
COc1c(CNC(=O)c2cc(C3CC3)nn2C)cccc1OCc1ccc(CN2CCN(C)CC2)cc1 [Compound 23] | 0.324 | > 5 | – | –
COc1c(CNC(=O)c2cc(C3CC3)nn2C)cccc1Oc1ccc(C(=O)N2CCN(S(C)(=O)=O)CC2)nn1 [Compound 133] | 6.32 | > 5 | – | –
COc1c(CNC(=O)c2cc(C3CC3)nn2C)cccc1OCc1ccc(S(=O)(=O)N2CCN(S(C)(=O)=O)CC2)cc1 [Compound 91] | 1.67 | > 5 | – | –
COc1c(CNC(=O)c2cc(C3CC3)nn2C)cccc1OCc1ccc(COC(=O)N2CCN(C(C)=O)CC2)cc1 [Compound 174] | 0.129 | > 5 | – | –
COc1c(CNC(=O)c2cc(C3CC3)nn2C)cccc1OCc1ccc(C(=O)N2CCN(S(=O)(=O)CC(C)C)CC2C)cc1 (stereo not shown) [Compound 8] | 0.194 | > 5 | – | –
COc1c(CNC(=O)c2cc(C3CC3)nn2C)cccc1OCc1ccc(CN2CCN(S(=O)(=O)CC(C)C)CC2)cc1 [Compound 19] | – | > 5 | 0.0146 | –
CC(=O)N1CCN(Cc2ccc(COc3cccc(CNC(=O)c4cc(C5CC5)nn4C)c3F)cc2)CC1 [Compound 13] | 0.628 | > 5 | – | –
COc1c(CNC(=O)c2cc(C3CC3)nn2C)cccc1OCc1ccc(S(=O)(=O)N2CCN(C)CC2)cc1 [Compound 92] | 16.7 | > 5 | – | –
COc1c(CNC(=O)c2cc(C3CC3)nn2C)cccc1OCc1ccc(OC(=O)N2CCN(S(C)(=O)=O)CC2)cc1 [Compound 128] | – | > 5 | – | –
Cn1nc(C2CC2)cc1C(=O)NCc1ccc(OCc2ccc(C(=O)N3CCN(S(C)(=O)=O)CC3)cc2)c(OC(F)(F)F)c1 [Compound 80] | 1.44 | > 5 | – | –
Cn1nc(C2CC2)cc1C(=O)NCc1cccc(OCc2ccc(C(=O)N3CCN(S(C)(=O)=O)CC3)cc2)c1Cl [Compound 63] | 6.82 | > 5 | – | –
COc1c(CNC(=O)c2cc(C3CC3)nn2C)cccc1OCc1ccc(CN2CCN(S(=O)(=O)CC(C)C)CC2)cc1 [Compound 17] | – | – | 0.0297 | > 5
